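A five-concentration, 48-hour dose response in 96-well plates underlies each endpoint, interpolated linearly between surrounding concentrations. GI50 is the concentration that inhibits growth by half.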 The source made the active and inactive calls. Rule as the data show it: active = GI50 up to about 1.1 µM and inactive = higher.
Experiments:
Test in all cases: NCI anticancer screen, dose series, 48 h
[1] = system: HCT-15
[2] = system: OVCAR-5
[3] = system: UACC-62
[4] = system: HOP-62
[5] = system: SW-620
[6] = system: EKVX
[7] = system: ACHN
[8] = system: NCI-H522
[9] = system: MOLT-4
[10] = system: SK-MEL-28
[11] = system: SK-MEL-2
[12] = system: LOX IMVI
[13] = system: DMS-273
[14] = system: OVCAR-4
[15] = system: OVCAR-3
[16] = system: OVCAR-8
[17] = system: COLO 205
[18] = system: Malme-3M
[19] = system: CAKI-1
[20] = system: SNB-75

Row | SMILES | GI50 [1] | GI50 [2] | GI50 [3] | GI50 [4] | GI50 [5] | GI50 [6] | GI50 [7] | GI50 [8] | GI50 [9] | GI50 [10] | GI50 [11] | GI50 [12] | GI50 [13] | GI50 [14] | GI50 [15] | GI50 [16] | GI50 [17] | GI50 [18] | GI50 [19] | GI50 [20]
1 | CSC(=N)N1N=C2c3ccccc3CC[C@@H]2[C@@H]1c1ccccc1 | 15.7 µM | 17.7 µM (inactive) | 17 µM (inactive) | 15.7 µM (inactive) | 15.5 µM (inactive) | 17.5 µM (inactive) | 18.3 µM (inactive) | 14.2 µM (inactive) | 9.71 µM (inactive) | 15.6 µM (inactive) | 14.6 µM (inactive) | 14.5 µM (inactive) | 15 µM (inactive) | 14.8 µM (inactive) | 15.8 µM (inactive) | 15 µM (inactive) | 13.1 µM (inactive) | 12.8 µM (inactive) | – | –
2 | COc1ccc(/C=C/C(C(=O)O)C(=O)O)cc1 | 45.6 µM | 78.5 µM (inactive) | 49.2 µM (inactive) | > 100 µM (inactive) | 31.5 µM (inactive) | 78.9 µM (inactive) | 92 µM (inactive) | 30.8 µM (inactive) | 25.8 µM (inactive) | 22.5 µM (inactive) | > 100 µM (inactive) | 16.1 µM (inactive) | > 100 µM (inactive) | 35.2 µM (inactive) | 47.9 µM (inactive) | > 100 µM (inactive) | > 100 µM (inactive) | 69.8 µM (inactive) | > 100 µM (inactive) | –
3 | Cc1ccc(NC(=O)CC(=O)n2nc(-c3ccccc3)c(/N=N/c3ccc(Cl)cc3)c2-c2ccccc2)cc1 | 88.7 µM | > 100 µM (inactive) | > 100 µM (inactive) | 50.6 µM (inactive) | 15.2 µM (inactive) | > 100 µM (inactive) | 27.6 µM (inactive) | – | 83.9 µM (inactive) | > 100 µM (inactive) | > 100 µM (inactive) | 15.6 µM (inactive) | 83.8 µM (inactive) | 23.3 µM (inactive) | 42.6 µM (inactive) | 26 µM (inactive) | 35 µM (inactive) | > 100 µM (inactive) | > 100 µM (inactive) | 22.6 µM (inactive)
4 | Oc1cccc2c1NC1=C(CCC/C1=C\c1ccccc1)C2 | 43.4 µM | – | – | > 100 µM (inactive) | > 100 µM (inactive) | > 100 µM (inactive) | 53.5 µM (inactive) | 11 µM (inactive) | 34.8 µM (inactive) | > 100 µM (inactive) | – | 73.3 µM (inactive) | 66.7 µM (inactive) | – | > 100 µM (inactive) | > 100 µM (inactive) | > 100 µM (inactive) | > 100 µM (inactive) | – | –
5 | C#C[C@]1(O)CCCC2=CC(=O)CC[C@@]21C | > 100 µM | > 100 µM (inactive) | – | – | > 100 µM (inactive) | > 100 µM (inactive) | > 100 µM (inactive) | > 100 µM (inactive) | > 100 µM (inactive) | > 100 µM (inactive) | > 100 µM (inactive) | – | > 100 µM (inactive) | – | > 100 µM (inactive) | > 100 µM (inactive) | > 100 µM (inactive) | > 100 µM (inactive) | – | –
6 | CC1OC(OC2C(OC(=O)[C@]34CCC(C)(C)C[C@H]3C3=CC[C@@H]5[C@@]6(C)CC[C@H](OC7OC(C(=O)O)C(O)C(O)C7O)C(C)(C)[C@@H]6CC[C@@]5(C)[C@]3(C)C[C@H]4O)OCC(O)C2O)C(O)C(OC2OCC(O)(CO)C2O)C1OC1OCC(O)C(O)C1O (some centres undefined) | 16.4 µM | 10.8 µM (inactive) | 16 µM (inactive) | 16.1 µM (inactive) | 10.9 µM (inactive) | 4.3 µM (inactive) | 5.15 µM (inactive) | 4.08 µM (inactive) | 13.6 µM (inactive) | 4.49 µM (inactive) | 6.7 µM (inactive) | 13.7 µM (inactive) | – | 10.5 µM (inactive) | 14 µM (inactive) | 17.1 µM (inactive) | 1.81 µM (inactive) | 11.6 µM (inactive) | 6.62 µM (inactive) | 17.7 µM (inactive)
7 | c1ccc2c(c1)CCN1CCc3ccccc3C1C2 (centres undefined) | 40.2 µM | 38.4 µM (inactive) | 29.7 µM (inactive) | 56.2 µM (inactive) | 64.6 µM (inactive) | 40.4 µM (inactive) | 77.6 µM (inactive) | 51.9 µM (inactive) | 40.4 µM (inactive) | 59.6 µM (inactive) | 51.2 µM (inactive) | 35.1 µM (inactive) | – | > 100 µM (inactive) | 99.1 µM (inactive) | 81.1 µM (inactive) | 38 µM (inactive) | > 100 µM (inactive) | 47.1 µM (inactive) | 36.4 µM (inactive)
8 | CCOC(=O)C(C(=O)OCC)C1C=CCC2c3ccccc3COCC21 (centres undefined) | 40 µM | > 100 µM (inactive) | 26.1 µM (inactive) | > 100 µM (inactive) | 52.7 µM (inactive) | 40.5 µM (inactive) | 40.2 µM (inactive) | 24.5 µM (inactive) | 40.9 µM (inactive) | 55.7 µM (inactive) | 41.4 µM (inactive) | 44.2 µM (inactive) | – | 28.6 µM (inactive) | 65.5 µM (inactive) | 44.2 µM (inactive) | 23.7 µM (inactive) | 31.7 µM (inactive) | 26.5 µM (inactive) | 96.6 µM (inactive)
9 | Cc1cc2c(=O)cc(-c3ccncc3)oc2c(C(=O)O)c1C | > 100 µM | > 100 µM (inactive) | > 100 µM (inactive) | > 100 µM (inactive) | > 100 µM (inactive) | > 100 µM (inactive) | > 100 µM (inactive) | – | > 100 µM (inactive) | > 100 µM (inactive) | > 100 µM (inactive) | > 100 µM (inactive) | > 100 µM (inactive) | – | > 100 µM (inactive) | > 100 µM (inactive) | > 100 µM (inactive) | > 100 µM (inactive) | – | > 100 µM (inactive)
10 | Nc1ccc2[nH]cc(CCC(=O)O)c2c1 | > 100 µM | > 100 µM (inactive) | > 100 µM (inactive) | > 100 µM (inactive) | 88.1 µM (inactive) | > 100 µM (inactive) | > 100 µM (inactive) | > 100 µM (inactive) | > 100 µM (inactive) | > 100 µM (inactive) | > 100 µM (inactive) | > 100 µM (inactive) | – | > 100 µM (inactive) | > 100 µM (inactive) | > 100 µM (inactive) | > 100 µM (inactive) | 28.8 µM (inactive) | > 100 µM (inactive) | 46.1 µM (inactive)
11 | C=CC(C1=CC(=O)C(OC)=CC1=O)c1ccccc1 (centres undefined) [4-METHOXYDALBERGIONE] | 14.3 µM | 20.3 µM (inactive) | 14.6 µM (inactive) | 16.6 µM (inactive) | 19.5 µM (inactive) | 16.1 µM (inactive) | 14.3 µM (inactive) | 6.93 µM (inactive) | 2.16 µM (inactive) | 15.5 µM (inactive) | 12.6 µM (inactive) | 16.2 µM (inactive) | – | 14.7 µM (inactive) | 17.2 µM (inactive) | 20.5 µM (inactive) | 18.9 µM (inactive) | 14.5 µM (inactive) | 17.2 µM (inactive) | 18.1 µM (inactive)
12 | CN(CCCCN1CCCC1)CCCCN(C)C(=O)Cc1ccc(Cl)c(Cl)c1 | 21.1 µM | 21.9 µM (inactive) | 3.66 µM (inactive) | 16.3 µM (inactive) | 18.8 µM (inactive) | 20.5 µM (inactive) | 20.7 µM (inactive) | 11.5 µM (inactive) | 4.54 µM (inactive) | 2 µM (inactive) | 6.07 µM (inactive) | 10.6 µM (inactive) | – | 17.6 µM (inactive) | 18.2 µM (inactive) | 21.3 µM (inactive) | 7.8 µM (inactive) | 17.9 µM (inactive) | 19.5 µM (inactive) | 15 µM (inactive)
13 | CC(=O)N1C(=O)C(=O)c2cc(Cl)ccc21 | > 100 µM | > 100 µM (inactive) | > 100 µM (inactive) | – | > 100 µM (inactive) | > 100 µM (inactive) | > 100 µM (inactive) | – | > 100 µM (inactive) | > 100 µM (inactive) | – | > 100 µM (inactive) | > 100 µM (inactive) | > 100 µM (inactive) | > 100 µM (inactive) | > 100 µM (inactive) | > 100 µM (inactive) | > 100 µM (inactive) | – | > 100 µM (inactive)
14 | Nc1ccccc1N/C(=C\C(=O)C(Cl)(Cl)Cl)c1ccccc1 | 25.4 µM | 15.7 µM (inactive) | 17.5 µM (inactive) | 23.6 µM (inactive) | 28.8 µM (inactive) | 15.2 µM (inactive) | 24.1 µM (inactive) | 15.3 µM (inactive) | 23.3 µM (inactive) | 35.5 µM (inactive) | 14.1 µM (inactive) | 19.5 µM (inactive) | – | 29.2 µM (inactive) | 22.5 µM (inactive) | 30.5 µM (inactive) | 27.9 µM (inactive) | 16.8 µM (inactive) | 34.5 µM (inactive) | 37.8 µM (inactive)
15 | Cc1sc2nc3n(c(=O)c2c1C)N=CN(c1ccccc1)C3 | > 100 µM | > 100 µM (inactive) | > 100 µM (inactive) | 20.4 µM (inactive) | > 100 µM (inactive) | > 100 µM (inactive) | 59.3 µM (inactive) | 38.5 µM (inactive) | > 100 µM (inactive) | > 100 µM (inactive) | > 100 µM (inactive) | > 100 µM (inactive) | – | 30.1 µM (inactive) | 19.4 µM (inactive) | 68.9 µM (inactive) | > 100 µM (inactive) | 32 µM (inactive) | 36 µM (inactive) | 35.9 µM (inactive)

Reference: ChEMBL document CHEMBL1201862, “PubChem BioAssay data set” (2004)
